Data: PubChem BioAssay AID206 (DTP/NCI, 2004)
Where “and” joins values, the source holds several entries; their conditions need not be identical. Equal entries are not always repeated. Inconclusive results are not listed. Residues, ends and D or L forms follow the SMILES beside them. *: point of attachment. Trt = c1ccc(C(c2ccccc2)(c2ccccc2)*)cc1; Cbz = O=C(OCc1ccccc1)*

Test system: nude mice, HT29 intrarenal xenograft, tumor weight T/C
Experiment: NCI In Vivo Anticancer Drug Screen. Data for tumor model HT29;CX-1 Human Adenocarcinoma (MER+) (intrarenal inoculation) in NU/NU Swiss (nude) mice
Settings: endpoint: mean tumor weight change, higher = larger tumour
Method in brief: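 Tumor-bearing mice received test compound or vehicle, and tumor size or survival was recorded. Values are the treated-group measurement divided by the vehicle-treated control measurement.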

[1] = dose: 600.0 mg/kg/injection, schedule: Q04DX004 (sc), vehicle: Klucel (hydroxypropylcellulose) (HPC)
[2] = dose: 1200.0 mg/kg/injection, schedule: Q04DX004 (sc), vehicle: Klucel (hydroxypropylcellulose) (HPC)
[3] = dose: 2400.0 mg/kg/injection, schedule: Q04DX004 (sc), vehicle: Klucel (hydroxypropylcellulose) (HPC)
[4] = dose: 150.0 mg/kg/injection, schedule: Q04DX004 (sc), vehicle: saline
[5] = dose: 100.0 mg/kg/injection, schedule: Q01DX010 (sc), vehicle: Klucel (hydroxypropylcellulose) (HPC)
[6] = dose: 1200.0 mg/kg/injection, schedule: Q04DX004 (sc), vehicle: saline with Tween-80
[7] = dose: 300.0 mg/kg/injection, schedule: Q04DX004 (sc), vehicle: Klucel (hydroxypropylcellulose) (HPC)

COc1cc2cc(c1Cl)N(C)C(=O)CC(OC(=O)CC(C)C)C1(C)OC1C(C)C1CC(O)(NC(=O)O1)C(OC)/C=C/C=C(C)C2 (configuration not stated)
T/C (dose: 125.0 micrograms/kg/injection, schedule: Q04DX004 (sc), vehicle: saline + alcohol): 87 % of control and 99 % of control | T/C (dose: 500.0 micrograms/kg/injection, schedule: Q04DX004 (sc), vehicle: saline + alcohol): 60 % of control

Cc1ccc(C2NC(=O)c3ccccc3N2)s1 (configuration not stated)
T/C [1]: 101 % of control | T/C [2]: 95 % of control | T/C [3]: 96 % of control | T/C (dose: 4800.0 mg/kg/injection, schedule: Q04DX004 (sc), vehicle: Klucel (hydroxypropylcellulose) (HPC)): 92 % of control

Nc1n[n+](-c2ccc(Cl)cc2)no1
T/C (dose: 25.0 mg/kg/injection, schedule: Q04DX004 (sc), vehicle: water): 95 % of control | T/C (dose: 50.0 mg/kg/injection, schedule: Q04DX004 (sc), vehicle: water): 121 % of control | T/C (dose: 100.0 mg/kg/injection, schedule: Q04DX004 (sc), vehicle: water): 102 % of control

CC(=O)N(C)C
T/C (dose: 1350.0 mg/kg/injection, schedule: Q04DX004 (sc), vehicle: saline): 112 % of control | T/C (dose: 2700.0 mg/kg/injection, schedule: Q04DX004 (sc), vehicle: saline): 45 % of control

O=C(O)C(O)C(O)C1[O][Sb][O]C1C(=O)O (configuration not stated)
T/C (dose: 37.5 mg/kg/injection, schedule: Q04DX004 (sc), vehicle: saline): 100 % of control | T/C (dose: 75.0 mg/kg/injection, schedule: Q04DX004 (sc), vehicle: saline): 73 % of control | T/C [4]: 93 % of control

COC(=O)c1ccoc1
T/C [4]: 116 % of control

CC1(C)CC(=O)C(CSC(=O)c2ccccc2)C(=O)C1
T/C (dose: 25.0 mg/kg/injection, schedule: Q01DX010 (sc), vehicle: Klucel (hydroxypropylcellulose) (HPC)): 79 % of control | T/C [5]: 120 % of control

CCSC(=O)N1c2ccc(OC)cc2C=CC1C#N (configuration not stated)
T/C (dose: 600.0 mg/kg/injection, schedule: Q04DX004 (sc), vehicle: saline with Tween-80): 93 % of control | T/C [6]: 84 % of control | T/C (dose: 2400.0 mg/kg/injection, schedule: Q04DX004 (sc), vehicle: saline with Tween-80): 53 % of control

Cc1c(N)nc(C(CC(N)=O)NCC(N)C(N)=O)nc1C(=O)NC(C(=O)NC(C)C(O)C(C)C(=O)NC(C(=O)NCCc1nc(-c2nc(C(=O)NCCCNC(C)c3ccccc3)cs2)cs1)C(C)O)C(OC1OC(CO)C(O)C(O)C1OC1OC(CO)C(O)C(OC(N)=O)C1O)c1cnc[nH]1 (configuration not stated)
T/C (dose: 2.0 mg/kg/injection, schedule: Q01DX010 (sc), vehicle: saline): 64 % of control | T/C (dose: 4.0 mg/kg/injection, schedule: Q01DX010 (sc), vehicle: saline): 65 % of control | T/C (dose: 8.0 mg/kg/injection, schedule: Q01DX010 (sc), vehicle: saline): 76 % of control | T/C (dose: 16.0 mg/kg/injection, schedule: Q01DX010 (sc), vehicle: saline): 65 % of control

CC[C@@H](C)[C@@H]1NC(=O)C(NC(=O)C(CC(C)C)N(C)C(=O)C2CCCN2C(=O)C(C)O)C(C)OC(=O)C(Cc2ccc(OC)cc2)N(C)C(=O)C2CCCN2C(=O)C(CC(C)C)NC(=O)C(C)C(=O)C(C(C)C)OC(=O)C[C@H]1O (some centres not stated)
T/C (dose: 225.0 micrograms/kg/injection, schedule: Q04DX004 (sc), vehicle: distilled water + alcohol): 105 % of control | T/C (dose: 450.0 micrograms/kg/injection, schedule: Q04DX004 (sc), vehicle: distilled water + alcohol): 106 % of control | T/C (dose: 900.0 micrograms/kg/injection, schedule: Q04DX004 (sc), vehicle: distilled water + alcohol): 78 % of control | T/C (dose: 1800.0 micrograms/kg/injection, schedule: Q04DX004 (sc), vehicle: distilled water + alcohol): 29 % of control

O=c1ssc(=Nc2ccccc2)n1-c1ccccc1
T/C [7]: 88 % of control | T/C [1]: 75 % of control | T/C [2]: 98 % of control | T/C [3]: 189 % of control

CS(=O)(=O)OCCN(CCOS(C)(=O)=O)c1ccc(C=Nc2ccc(-c3csc(COc4ccccc4)n3)cc2)cc1
T/C (dose: 50.0 mg/kg/injection, schedule: Q01DX010 (sc), vehicle: Klucel (hydroxypropylcellulose) (HPC)): 72 % of control | T/C [5]: 44 % of control

COc1cc(C(=O)c2cc3c(cc2C)OCO3)cc(OC)c1OC
T/C [7]: 83 % of control | T/C [1]: 64 % of control | T/C [2]: 82 % of control

COC(=O)C(CSC(c1ccccc1)(c1ccccc1)c1ccccc1)NC(=O)C(CC(N)=O)NC(=O)OCc1ccccc1 (stereo not drawn) (Cbz-Asn-Cys(Trt)-OMe; configuration not given here)
T/C (dose: 150.0 mg/kg/injection, schedule: Q04DX004 (sc), vehicle: distilled water + Tween-80): 63 % of control | T/C (dose: 300.0 mg/kg/injection, schedule: Q04DX004 (sc), vehicle: distilled water + Tween-80): 69 % of control | T/C (dose: 600.0 mg/kg/injection, schedule: Q04DX004 (sc), vehicle: distilled water + Tween-80): 81 % of control | T/C (dose: 1200.0 mg/kg/injection, schedule: Q04DX004 (sc), vehicle: distilled water + Tween-80): 83 % of control

C[C@]12C=CC(=O)C=C1CC[C@@H]1[C@@H]2C(=O)C[C@@]2(C)[C@H]1CC[C@]2(O)C(=O)CO
T/C (dose: 150.0 mg/kg/injection, schedule: Q04DX004 (sc), vehicle: Klucel (hydroxypropylcellulose) (HPC)): 18 % of control | T/C [1]: 27 % of control | T/C [2]: 19 % of control

ClCC[Se](Cl)(Cl)c1ccccc1
T/C (dose: 12.5 mg/kg/injection, schedule: Q04DX004 (sc), vehicle: saline): 154 % of control | T/C (dose: 50.0 mg/kg/injection, schedule: Q04DX004 (sc), vehicle: saline): 100 % of control

O=C1NC(c2ccccc2)N=C2Oc3ccccc3C=C12 (configuration not stated)
T/C (dose: 50.0 mg/kg/injection, schedule: Q01DX010 (sc), vehicle: saline with Tween-80): 115 % of control | T/C (dose: 100.0 mg/kg/injection, schedule: Q01DX010 (sc), vehicle: saline with Tween-80): 155 % of control | T/C (dose: 200.0 mg/kg/injection, schedule: Q01DX010 (sc), vehicle: saline with Tween-80): 77 % of control | T/C (dose: 400.0 mg/kg/injection, schedule: Q01DX010 (sc), vehicle: saline with Tween-80): 54 % of control

O=C1c2ccccc2C(=O)c2c(NCCNCCO)ccc(O)c21
T/C (dose: 25.0 mg/kg/injection, schedule: Q04DX004 (sc), vehicle: suspension in saline): 74 % of control | T/C (dose: 50.0 mg/kg/injection, schedule: Q04DX004 (sc), vehicle: suspension in saline): 73 % of control | T/C (dose: 100.0 mg/kg/injection, schedule: Q04DX004 (sc), vehicle: suspension in saline): 111 % of control

CCC[CH2][Hg][Cl]
T/C (dose: 9.38 mg/kg/injection, schedule: Q04DX004 (sc), vehicle: Klucel (hydroxypropylcellulose) (HPC)): 83 % of control | T/C (dose: 18.75 mg/kg/injection, schedule: Q04DX004 (sc), vehicle: Klucel (hydroxypropylcellulose) (HPC)): 72 % of control | T/C (dose: 37.5 mg/kg/injection, schedule: Q04DX004 (sc), vehicle: Klucel (hydroxypropylcellulose) (HPC)): 45 % of control

COc1ccc2c(NCCCCCCNc3c4ccccc4nc4cc(OC)ccc34)c3ccccc3nc2c1
T/C (dose: 0.62 mg/kg/injection, schedule: Q01DX010 (sc), vehicle: lactic acid): 87 % of control | T/C (dose: 1.25 mg/kg/injection, schedule: Q01DX010 (sc), vehicle: lactic acid): 73 % of control | T/C (dose: 2.5 mg/kg/injection, schedule: Q01DX010 (sc), vehicle: lactic acid): 71 % of control | T/C (dose: 30.0 mg/kg/injection, schedule: Q01DX010 (sc), vehicle: lactic acid): 71 % of control

C/C=C(\C)c1cc(=O)c2c(C)cc3c(c2o1)C(=O)c1c(O)c(C2CC(C)(N(C)C)C(OC(C)=O)C(C)O2)cc(C2CC(N(C)C)C(O)C(C)O2)c1C3=O (configuration not stated)
T/C (dose: 2.5 mg/kg/injection, schedule: Q04DX004 (sc), vehicle: saline): 102 % of control | T/C (dose: 5.0 mg/kg/injection, schedule: Q04DX004 (sc), vehicle: saline): 93 % of control | T/C (dose: 20.0 mg/kg/injection, schedule: Q04DX004 (sc), vehicle: saline): 37 % of control and 39 % of control

C/C(=N\N=C(/[Se])N1CC2CCC(CC2)C1)c1ccccn1
T/C (dose: 6.25 mg/kg/injection, schedule: Q04DX004 (sc), vehicle: Klucel (hydroxypropylcellulose) (HPC)): 60 % of control | T/C (dose: 12.5 mg/kg/injection, schedule: Q04DX004 (sc), vehicle: Klucel (hydroxypropylcellulose) (HPC)): 83 % of control | T/C (dose: 25.0 mg/kg/injection, schedule: Q04DX004 (sc), vehicle: Klucel (hydroxypropylcellulose) (HPC)): 81 % of control | T/C (dose: 50.0 mg/kg/injection, schedule: Q04DX004 (sc), vehicle: Klucel (hydroxypropylcellulose) (HPC)): 86 % of control

CNC(=O)c1cccc2c(Nc3ccc(NS(C)(=O)=O)cc3OC)c3cccc(C)c3nc12
T/C (dose: 50.0 mg/kg/injection, schedule: Q04DX004 (sc), vehicle: other): 72 % of control | T/C (dose: 100.0 mg/kg/injection, schedule: Q04DX004 (sc), vehicle: other): 39 % of control

CCCCCCCCCCCCCCCCCC(=O)Nc1ccn(C2OC(CO)C(O)C2O)c(=O)n1 (configuration not stated)
T/C (dose: 150.0 mg/kg/injection, schedule: Q04DX004 (sc), vehicle: saline with Tween-80): 49 % of control and 61 % of control | T/C (dose: 300.0 mg/kg/injection, schedule: Q04DX004 (sc), vehicle: saline with Tween-80): 67 % of control and 89 % of control | T/C [6]: 14 % of control and 32 % of control
